# In PubChem BioAssay (NCI):
#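 Following 48 hours of exposure in 96-well plates, responses at five concentrations were used to interpolate endpoints linearly. At the TGI there is no net growth.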
# Assays:
# Test in all cases: growth of human tumour cells (NCI), 48 h
# OVCAR-3 ovarian = system: OVCAR-3 ovarian
# OVCAR-5 ovarian = system: OVCAR-5 ovarian
# HOP-62 NSCLC = system: HOP-62 NSCLC
# MDA-MB-231 breast = system: MDA-MB-231 breast
# RXF 393 renal = system: RXF 393 renal
# U251 CNS = system: U251 CNS
# SNB-75 CNS = system: SNB-75 CNS
# NCI-H460 lung = system: NCI-H460 lung
# UO-31 renal = system: UO-31 renal
# TK-10 renal = system: TK-10 renal
# OVCAR-4 ovarian = system: OVCAR-4 ovarian
# SK-OV-3 ovarian = system: SK-OV-3 ovarian
# 786-0 renal = system: 786-0 renal
# RPMI-8226 leukemia = system: RPMI-8226 leukemia
# SW-620 colon = system: SW-620 colon
# UACC-62 melanoma = system: UACC-62 melanoma
# NCI-H226 lung = system: NCI-H226 lung
# DU-145 prostate = system: DU-145 prostate
# OVCAR-8 ovarian = system: OVCAR-8 ovarian
# SNB-19 CNS = system: SNB-19 CNS
# COLO 205 colon = system: COLO 205 colon
# MALME-3M melanoma = system: MALME-3M melanoma
# A498 renal = system: A498 renal
# HT29 colon = system: HT29 colon
# M14 melanoma = system: M14 melanoma
# NCI/ADR-RES ovarian = system: NCI/ADR-RES ovarian
# HOP-92 NSCLC = system: HOP-92 NSCLC
# ACHN renal = system: ACHN renal
# NCI-H23 lung = system: NCI-H23 lung
# MOLT-4 leukemia = system: MOLT-4 leukemia
# CAKI-1 renal = system: CAKI-1 renal
# SF-268 CNS = system: SF-268 CNS
# SK-MEL-2 melanoma = system: SK-MEL-2 melanoma
# KM12 colon = system: KM12 colon
# SK-MEL-28 melanoma = system: SK-MEL-28 melanoma
# EKVX NSCLC = system: EKVX NSCLC
# SF-295 CNS = system: SF-295 CNS
# PC-3 prostate = system: PC-3 prostate
# A549 NSCLC = system: A549 NSCLC
# HCC-2998 colon = system: HCC-2998 colon
# HCT-15 colon = system: HCT-15 colon
# SF-539 CNS = system: SF-539 CNS
# BT-549 breast = system: BT-549 breast
# SR leukemia = system: SR leukemia
# IGROV1 ovarian = system: IGROV1 ovarian
# T-47D breast = system: T-47D breast
# HS 578T breast = system: HS 578T breast
# MCF7 breast = system: MCF7 breast
# HL-60(TB) leukemia = system: HL-60(TB) leukemia
# UACC-257 melanoma = system: UACC-257 melanoma
# CCRF-CEM leukemia = system: CCRF-CEM leukemia
# NCI-H522 lung = system: NCI-H522 lung
# SK-MEL-5 melanoma = system: SK-MEL-5 melanoma
# SN12C renal = system: SN12C renal
# LOX IMVI melanoma = system: LOX IMVI melanoma
# MDA-MB-435 = system: MDA-MB-435
# K-562 leukemia = system: K-562 leukemia
# HCT-116 colon = system: HCT-116 colon
structure (smiles),measurement,setting,value
Cn1nc(S(N)(=O)=O)s/c1=N/S(=O)(=O)c1ccc(N)cc1,TGI,OVCAR-3 ovarian,> 100 µM
same,TGI,OVCAR-5 ovarian,> 100 µM
same,TGI,HOP-62 NSCLC,> 100 µM
same,TGI,MDA-MB-231 breast,> 100 µM
same,TGI,RXF 393 renal,> 100 µM
same,TGI,U251 CNS,> 100 µM
same,TGI,SNB-75 CNS,> 100 µM
same,TGI,NCI-H460 lung,> 100 µM
same,TGI,UO-31 renal,> 100 µM
same,TGI,TK-10 renal,> 100 µM
same,TGI,OVCAR-4 ovarian,> 100 µM
same,TGI,SK-OV-3 ovarian,> 100 µM
same,TGI,786-0 renal,> 100 µM
same,TGI,RPMI-8226 leukemia,> 100 µM
same,TGI,SW-620 colon,> 100 µM
same,TGI,UACC-62 melanoma,> 100 µM
same,TGI,NCI-H226 lung,> 100 µM
same,TGI,DU-145 prostate,> 100 µM
same,TGI,OVCAR-8 ovarian,> 100 µM
same,TGI,SNB-19 CNS,> 100 µM
same,TGI,COLO 205 colon,> 100 µM
same,TGI,MALME-3M melanoma,> 100 µM
same,TGI,A498 renal,> 100 µM
same,TGI,HT29 colon,> 100 µM
same,TGI,M14 melanoma,> 100 µM
same,TGI,NCI/ADR-RES ovarian,> 100 µM
same,TGI,HOP-92 NSCLC,> 100 µM
same,TGI,ACHN renal,> 100 µM
same,TGI,NCI-H23 lung,> 100 µM
same,TGI,MOLT-4 leukemia,> 100 µM
same,TGI,CAKI-1 renal,> 100 µM
same,TGI,SF-268 CNS,> 100 µM
same,TGI,SK-MEL-2 melanoma,> 100 µM
same,TGI,KM12 colon,> 100 µM
same,TGI,SK-MEL-28 melanoma,> 100 µM
same,TGI,EKVX NSCLC,> 100 µM
same,TGI,SF-295 CNS,> 100 µM
same,TGI,PC-3 prostate,> 100 µM
same,TGI,A549 NSCLC,> 100 µM
same,TGI,HCC-2998 colon,> 100 µM
same,TGI,HCT-15 colon,> 100 µM
same,TGI,SF-539 CNS,> 100 µM
same,TGI,BT-549 breast,> 100 µM
CN(C)CCCN1c2ccc(O)cc2Sc2ccc(Cl)cc21,TGI,SR leukemia,15.8 µM
same,TGI,OVCAR-3 ovarian,24.5 µM
same,TGI,OVCAR-5 ovarian,30.8 µM
same,TGI,HOP-62 NSCLC,29.5 µM
same,TGI,IGROV1 ovarian,22 µM
same,TGI,MDA-MB-231 breast,23.6 µM
same,TGI,RXF 393 renal,32.6 µM
same,TGI,U251 CNS,21.6 µM
same,TGI,SNB-75 CNS,21 µM
same,TGI,NCI-H460 lung,14.5 µM
same,TGI,UO-31 renal,21.7 µM
same,TGI,TK-10 renal,24.9 µM
same,TGI,OVCAR-4 ovarian,25.5 µM
same,TGI,SK-OV-3 ovarian,32.1 µM
same,TGI,786-0 renal,24 µM
same,TGI,T-47D breast,38.7 µM
same,TGI,RPMI-8226 leukemia,21.9 µM
same,TGI,SW-620 colon,39.6 µM
same,TGI,HS 578T breast,23.1 µM
same,TGI,UACC-62 melanoma,21.8 µM
same,TGI,NCI-H226 lung,24.7 µM
same,TGI,DU-145 prostate,31.8 µM
same,TGI,MCF7 breast,26.5 µM
same,TGI,OVCAR-8 ovarian,30.5 µM
same,TGI,SNB-19 CNS,27.6 µM
same,TGI,COLO 205 colon,39.3 µM
same,TGI,MALME-3M melanoma,24 µM
same,TGI,HL-60(TB) leukemia,30.8 µM
same,TGI,UACC-257 melanoma,4.14 µM
same,TGI,A498 renal,31.6 µM
same,TGI,HT29 colon,14.7 µM
same,TGI,M14 melanoma,19.7 µM
same,TGI,NCI/ADR-RES ovarian,30.1 µM
same,TGI,HOP-92 NSCLC,17.2 µM
same,TGI,CCRF-CEM leukemia,22.2 µM
same,TGI,ACHN renal,28.1 µM
same,TGI,NCI-H522 lung,25.3 µM
same,TGI,NCI-H23 lung,34 µM
same,TGI,SK-MEL-5 melanoma,28.2 µM
same,TGI,MOLT-4 leukemia,17.5 µM
same,TGI,SN12C renal,23.1 µM
same,TGI,CAKI-1 renal,16 µM
same,TGI,SF-268 CNS,21 µM
same,TGI,SK-MEL-2 melanoma,19 µM
same,TGI,KM12 colon,23 µM
same,TGI,LOX IMVI melanoma,20.2 µM
same,TGI,SK-MEL-28 melanoma,24.7 µM
same,TGI,EKVX NSCLC,35.9 µM
same,TGI,SF-295 CNS,29 µM
same,TGI,PC-3 prostate,18 µM
same,TGI,MDA-MB-435,21.1 µM
same,TGI,A549 NSCLC,28.6 µM
same,TGI,K-562 leukemia,16.8 µM
same,TGI,HCT-15 colon,29 µM
same,TGI,SF-539 CNS,28.7 µM
same,TGI,HCT-116 colon,20.1 µM
same,TGI,BT-549 breast,25.2 µM
CC(C)(C)[Si](C)(C)OCCC1CC2(S(=O)(=O)C3=CC=C=C=C3)ON1CC2S(=O)(=O)c1ccccc1 (configuration not stated),TGI,U251 CNS,> 100 µM
same,TGI,SK-OV-3 ovarian,> 100 µM
